In PubChem BioAssay (NCI) one finds TGI and GI50 data, which are given here for 12 compounds.

Common to all, as to assay: NCI-60 cell line screen, 48 h
Assay [1] has as its system RXF 393 renal.
Assay [2] has as its system ACHN renal.
Assay [3] relates to A549 NSCLC.
For assay [4], the system named is 786-0 renal.
For assay [5], the system named is SN12C renal.
Assay [6] deals with HT29 colon.
Assay [7] has as its system CCRF-CEM leukemia.
Assay [8] relates to HCC-2998 colon.
Assay [9] deals with M14 melanoma.

Each structure is given as a SMILES string.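 48-hour exposure; five concentrations; linearly interpolated endpoints. GI50 marks 50% less growth. The concentration for full growth arrest is given as TGI.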 Bounds are passed on as bounds.

Take `FC(F)(F)c1nc(Br)[nH]c1C(F)(F)F`: the TGI in assay [1], in [2], in assay [3], in [4], in [5] and in [6] was > 100 µM in each case. For the same compound, the TGI in assay [7], in [8] and in assay [9] was > 100 µM each time.
As for `O=C(NCc1ccccc1)C1C(=O)C(=O)N(Cc2ccccc2)C1=O` (configuration not stated), the TGI in [1], in [2], in assay [3], in [4], in assay [5] and in [6] was > 100 µM in each case. The TGI in assay [7], in assay [8] and in [9] was > 100 µM throughout.
`Cc1ccc(NC(=O)CCC(=O)C2Cc3ccccc3C2=O)cc1C` (configuration not stated): the TGI in assay [1], in assay [2], in assay [3], in [4], in [5] and in [6] was > 100 µM each time. Further, the TGI in [7], in assay [8] and in assay [9] was > 100 µM each time.
`O=C(O)CCSC(=O)Nc1ccccc1`: the TGI in [1], in assay [2], in [3], in assay [4], in assay [5] and in assay [6] was > 100 µM each time. The TGI in assay [7], in assay [8] and in assay [9] was > 100 µM each time.
As for `CCOC(=O)CCn1cnc(N)n1`, the TGI in assay [1], in assay [2], in assay [3], in [4], in assay [5] and in assay [6] was > 100 µM throughout. Besides, the TGI in [7], in assay [8] and in assay [9] was > 100 µM each time.
`C=C1C(C(=O)O)C1C(=O)O` (configuration not stated): the TGI in assay [1], in assay [2], in assay [3], in assay [4], in assay [5] and in assay [6] was > 100 µM each time. Also, the TGI in [7], in assay [8] and in [9] was > 100 µM throughout.
For `CC(=O)[CH-]C(=O)c1ccccc1.CC(=O)[CH-]C(=O)c1ccccc1.CC(=O)[CH-]C(=O)c1ccccc1.[Br-].[Zr+4]`, the GI50 in assay [1] is > 100 µM; in [2], 54.3 µM; in [3], > 100 µM; in [4], 67.1 µM; in assay [5], 57.1 µM; in assay [6], 48.3 µM. In addition, the GI50 was 22.3 µM in [7] and 45 µM in assay [9]. Further, the TGI in [1], in assay [2], in [3], in [4], in assay [5] and in assay [6] was > 100 µM throughout. The TGI in assay [7] and in assay [9] was > 100 µM in each case.
On to `N#CC(C#N)=C1CCC2C(=C(C#N)C#N)CCC12` (configuration not stated), for which the TGI in assay [1], in assay [3], in assay [4], in assay [5], in [6] and in assay [7] was > 100 µM in each case. The TGI in [8] and in assay [9] was > 100 µM each time.
Take `CCc1ccccc1NC(=O)C(=O)C(C#N)c1c(Cl)cccc1Cl` (configuration not stated): the TGI in assay [2], in assay [3], in [4], in assay [5], in [6] and in [7] was > 100 µM throughout. The TGI in assay [9] is > 100 µM.
`CCCCNCCCCCNc1cc(OC)cc2cccnc12`: the GI50 in assay [1] is 12.3 µM; in assay [2] it was 45.3 µM; in assay [3] it was 20.7 µM; in assay [4] it was 14.6 µM; in [5] it was 36.5 µM; in assay [7], 28.1 µM. The GI50 is 3.1 µM in assay [8] and 14.9 µM in assay [9]. Also, the TGI in assay [1] is 27.9 µM; in assay [2], > 100 µM; in [3], 51.3 µM; in [4], 28.2 µM; in assay [5], > 100 µM; in assay [7] it was 74.2 µM. Moreover, the TGI worked out at 16.4 µM in [8] and 28.5 µM in assay [9].
`O=C1CCc2ccc(O)c(c2)Oc2ccc(cc2)[C@@H]2O[C@@H]2CO1`: the TGI in assay [2], in [3], in assay [4], in [5], in assay [6] and in [7] was > 100 µM each time. Further, the TGI in assay [8] and in assay [9] was > 100 µM each time.
Turning to `C=CCC1C(=O)CC2(C)C(CC=C)C(=O)CC12C` (configuration not stated), the TGI in assay [2], in [3], in assay [4], in assay [5], in assay [6] and in [7] was > 100 µM each time. In addition, the TGI in assay [8] and in [9] was > 100 µM in each case.
